Patent US20130310421A1, “TREATMENT OF AMYLOID BETA AMYLOIDOSIS” (Temple University - Of The Commonwealth System of Higher …, priority 2012, published 2013)
Entries after “also recorded” stand apart in the source; their conditions may differ.

Experiments:
[1] = system: γ-secretase-mediated cleavage of Notch; assay: γ-secretase-mediated cleavage of Notch (NICD western blot) in transfected N2A-APPswe cells; type: cell-based; conditions: N2A-APPswe cells transfected with Myc-tagged mAE-Notch-1, 24-hour incubation vs vehicle
Protocol: For transfection studies, N2A-APPswe cells were transfected with 1 μg Myc-tagged mAE-Notch-1 complementary DNA overnight (a generous gift from Dr. L. D'Adamio, Albert Einstein Medical College, NY) by using Lipofectamine 2000 (Invitrogen). The media were removed and fresh media containing MK-591, L685, 458 or vehicle was added. After a 24-hour incubation, cell lysates were collected and Notch intracellular domain (NICD) expression levels assayed by western blot analysis.

Tg2576 mice = assay: General health and blood parameters of Tg2576 mice on chronic MK-591 diet; type: in vivo, mouse
Protocol: The Tg2576 transgenic mice expressing human APP with the Swedish mutation (K670N/M671L) used in these studies were previously described (Pratico D et al. J Neurosci 2001, 21(12):4183-4187). The mice were genotyped by polymerase chain reaction (PCR) analysis using tail DNA and kept in a pathogen-free environment, one 12-hour light/dark cycle and had access to food and water ad libitum. All the experiments presented herein were performed with female mice. Starting at 7 months of age, mice were randomized to receive MK-591 (40 mg/kg weight) (n=11) or vehicle (n=9) in their chow diet for 8 months until they were 15 months old. Considering that each mouse eats on average 5 g/day of chow diet and the diet is formulated for 320 mg MK-591 pwer kg diet (Harlan Teklad, Wis., USA), the final dose of the active drug was approximately 40 mg/kg weight/day.
Starting at seven months of age Tg2576 mice were randomized to receive MK-591 (320 mg/kg diet) or vehicle in their chow diet for 8 months before being sacrificed. Considering that each mouse eats on average 5 g/day of chow diet, the final dose of the active drug was approximately 40 mg/kg weight/day. By the end of the study, body weight, total plasma cholesterol, triglycerides and blood cell counts were not different between the two groups (not shown).

3xTg mice = assay: Electrophysiology of hippocampal slices (fEPSP, PPF, LTP) of 3xTg mice; type: in vivo, mouse; conditions: 3xTg-MK-591 mice, mean +/- SEM
Protocol: The 3xTg mice harboring a mutant amyloid precursor protein (APP; KM670/671NL), a human mutant PS1 (M146V) knockin, and tau (P301L) transgenes, wild type mice (WT), and mice genetically deficient for FLAPKO (FLAPKO) used in this study were reported previously (Oddo S et al. Neuron 2003, 39:409-421; Byrum R S et al. J Exp Med 1997, 185:1065-1075). All the animals were backcrossed 10 times on the same genetic background C57BL6/SJL. The FLAPKO mice were crossbred several times with 3xTg mice to obtain founder animals (3xTg/FLAPKO), which were then crossed with each other. The animals from these crosses were used for the studies. […]
Six month old mice (n=# slices/# animals): WT (n=23/8); 3xTg (n=21/7); 3xTg-FLAPKO (n=21/6); 3xTg plus MK-591 (n=10/3) were sacrificed by rapid decapitation and brains were put into ice-cold artificial cerebral spinal fluid (CSF) in which sucrose (248 mM) was substituted for NaCl. […] We recorded field excitatory postsynaptic potentials (fEPSPs) from the CAl stratum radiatum by using an extracellular glass pipette ([…]) filled with ACSF. […] Baseline was recorded for 20 mins prior to tetanization with pulses every 30 seconds. […] The fEPSP rise/slope (mV/ms) between 30 and 90% was measured offline using Clampfit 10.3 (Molecular Devices, LLC) and normalized to the mean rise/slope of the baseline. […]

[2] = MK-591 approximately 40 mg/kg weight/day for 8 months vs vehicle, end of study
[3] = MK-591 approximately 40 mg/kg weight/day in chow for 8 months

| SMILES | Notch intracellular domain (NICD) levels [1] | blood cell counts (Tg2576 mice; [2]) | total plasma cholesterol (Tg2576 mice; [2]) | triglycerides (Tg2576 mice; [2]) | overall general health (Tg2576 mice; [3]) | post-mortem macroscopic pathology of organs (spleen, liver, thymus, ileum) (Tg2576 mice; [3]) | body weight (Tg2576 mice; MK-591 approximately 40 mg/kg weight/day in chow for 8 months vs vehicle) | LTP magnitude as percentage of baseline, 0-10 minutes post-tetanus (3xTg mice; n=10 slices, 3xTg 159.9%, WT 274.6%) [%+/−13.2%] | LTP magnitude as percentage of baseline, 170-180 minutes post-tetanus (3xTg mice; 3xTg 121.0%, WT 202.6%) [%+/−9.4%] |
| --- | --- | --- | --- | --- | --- | --- | --- | --- | --- |
| CC(C)C[C@H](NC(=O)[C@H](Cc1ccccc1)C[C@@H](O)[C@H](Cc1ccccc1)NC(=O)OC(C)(C)C)C(=O)N[C@@H](Cc1ccccc1)C(N)=O [L685,458] | significant reduction | – | – | – | – | – | – | – | – |
| CC(C)(C)Sc1c(CC(C)(C)C(=O)O)n(Cc2ccc(Cl)cc2)c2ccc(OCc3ccc4ccccc4n3)cc12 [MK-591, 3-[3-tert-butylsulfanyl-1-[(4-chlorophenyl)methyl]-5-(quinolin-2-ylmethoxy)indol-2-yl]-2,2,-dimethylpropanoic acid] | – | not different | not different | not different | No macroscopic effect | no sign of macroscopic pathology | no significant difference; also recorded: not different | 272.5 | 202.5 |
